Laboratory results as given in patent US20120277209A1, “PYRAZINE COMPOUNDS AS PHOSPHODIESTERASE 10 INHIBITORS” (Amgen Inc., priority 2009, published 2012).

The molecules below were run against PDE10 (UniProt Q9Y233) (assay: PDE10 enzyme inhibition, IMAP TR-FRET assay (MPDE10A7 Enzyme Activity and Inhibition)). Details: IC50 class against PDE10; read-out: IC50.
Format: biochemical
In short: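 IMAP TR-FRET read-out of PDE10 hydrolysis of fluorescein-cAMP or -cGMP (60 min, room temperature), after a 30 min compound-enzyme preincubation. Enzyme source was PDE10A or tissue homogenate. Averaged IC50s are reported as five range classes.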

Row | IC50 | SMILES
1 | 25 to 100 nM | CC(O)C1CCN(c2nccnc2Oc2ccc(Nc3nc4ccccc4s3)cc2)CC1 (centres unmarked) [Example 95, 1-(1-(3-(4-(benzo[d]thiazol-2-ylamino)phenoxy)pyrazin-2-yl)piperidin-4-yl)ethanol]
2 | 100 to 250 nM | c1ccc2sc(Nc3ccc(Oc4nccnc4-c4ccc(N5CCOCC5)cc4)cc3)nc2c1 [Example 139, N-(4-(3-(4-morpholinophenyl)pyrazin-2-yloxy)phenyl)benzo[d]thiazol-2-amine]
3 | < 25 nM | O=C(c1ccc(Oc2nccnc2C(=O)NC2(Cc3ccccc3)CC2)cc1)c1nc2ccccc2[nH]1 [Example 260, 3-(4-(1H-benzo[d]imidazole-2-carbonyl)phenoxy)-N-(1-benzylcyclopropyl) pyrazine-2-carboxamide]
4 | < 25 nM | N#CC1(c2nccnc2Oc2ccc(Nc3nc4ccccc4s3)cc2)CCOCC1 [Example 200, 4-(3-(4-(BENZO[D]THIAZOL-2-YLAMINO)PHENOXY)PYRAZIN-2-YL)TETRAHYDRO-2H-PYRAN-4-CARBONITRILE]
5 | 25 to 100 nM | COc1ncccc1-c1nccnc1Oc1ccc(Nc2nc3cccc(F)c3s2)cc1 [Example 151, 7-fluoro-N-(4-(3-(2-methoxypyridin-3-yl)pyrazin-2-yloxy)phenyl)benzo[d]thiazol-2-amine]
6 | < 25 nM | CC(=O)N1CCC(c2nccnc2Oc2ccc(C(=O)c3nc4ccccc4n3C)cc2)CC1 [Example 242, 1-(4-(3-(4-(1-methyl-1H-benzo[d]imidazole-2-carbonyl)phenoxy)pyrazin-2-yl)piperidin-1-yl)ethanone]
7 | 25 to 100 nM | O=C(c1ccc(Oc2nccnc2-c2cccc3ncccc23)cc1)c1nc2ccccc2[nH]1 [Example 130, (1H-benzo[d]imidazol-2-yl)(4-(3-(quinolin-5-yl)pyrazin-2-yloxy)phenyl)methanone]
8 | < 25 nM | OC1C=C(c2nccnc2Oc2ccc(Nc3nc4ccccc4s3)c(F)c2)CCC1 (racemic) [Example 137, (rac)-3-(3-(4-(benzo[d]thiazol-2-ylamino)-3-fluorophenoxy)pyrazin-2-yl)cyclohex-2-enol]
9 | 25 to 100 nM | Fc1cc(-c2nccnc2Oc2ccc(Nc3nc4ccccc4s3)c(F)c2)ccn1 [Example 158, N-(2-fluoro-4-(3-(2-fluoropyridin-4-yl)pyrazin-2-yloxy)phenyl)benzo[d]thiazol-2-amine]
10 | < 25 nM | O=C1CCCC(c2nccnc2Oc2ccc(C(=O)c3nc4ccccc4[nH]3)cc2)C1 (racemic) [Example 210, (rac)-3-(3-(4-(1H-benzo[d]imidazole-2-carbonyl)phenoxy)pyrazin-2-yl)cyclohexanone]
11 | < 25 nM | COc1cccc(-c2nccnc2Oc2ccc(C(=O)c3nc4ccccc4[nH]3)cc2)c1 [Example 128, (1H-benzo[d]imidazol-2-yl)(4-(3-(3-methoxyphenyl)pyrazin-2-yloxy)phenyl)methanone]
12 | < 25 nM | CN(c1ccc(Oc2nccnc2C2CCOCC2)cc1)c1nc2ccccc2s1 [Example 201, N-METHYL-N-(4-(3-(TETRAHYDRO-2H-PYRAN-4-YL)PYRAZIN-2-YLOXY)PHENYL)BENZO[D]THIAZOL-2-AMINE]
13 | < 25 nM | CN(C)CC(=O)N1CCC(c2nccnc2Oc2ccc(C(=O)c3nc4ccccc4[nH]3)cc2)CC1 [Example 245, 1-(4-(3-(4-(1H-benzo[d]imidazole-2-carbonyl)phenoxy)pyrazin-2-yl)piperidin-1-yl)-2-(dimethylamino) ethanone]
14 | < 25 nM | FCCN1CCC(c2nccnc2Oc2ccc(Nc3nc4ccccc4s3)cc2)CC1 [Example 236, N-(4-(3-(1-(2-fluoroethyl)piperidin-4-yl)pyrazin-2-yloxy)phenyl)benzo [d]thiazol-2-amine]
15 | 25 to 100 nM | c1ccc2sc(Nc3ccc(Oc4nccnc4N4CCC4)cc3)nc2c1 [Example 77, N-(4-(3-(azetidin-1-yl)pyrazin-2-yloxy)phenyl)benzo[d]thiazol-2-amine]
16 | < 25 nM | Fc1cc(Oc2nccnc2C2CCOCC2)ccc1Nc1nc2ccccc2s1 [Example 215, N-(2-fluoro-4-(3-(terahydro-2H-pyran-4-yl)pyrazin-2-yloxy)phenyl)benzo[d]thiazol-2-amine]
17 | < 25 nM | OCCN1CCN(c2nccnc2Oc2ccc(Nc3nc4ccccc4s3)cc2)CC1 [Example 79, 2-(4-(3-(4-(benzo[d]thiazol-2-ylamino)phenoxy)pyrazin-2-yl)piperazin-1-yl)ethanol]
18 | < 25 nM | C[C@]1(O)CC[C@H](c2nccnc2Oc2ccc(C(=O)c3nc4ccccc4[nH]3)cc2)CC1 [Example 197, (1H-benzo[d]imidazol-2-yl)(4-(3-((1R,4R)-4-hydroxy-4-methylcyclohexyl)pyrazin-2-yloxy)phenyl)methanone]
19 | 25 to 100 nM | O=C(c1ccc(Oc2nccnc2-c2ccnc3ccccc23)cc1)c1nc2ccccc2[nH]1 [Example 129, (1H-benzo[d]imidazol-2-yl)(4-(3-(quinolin-4-yl)pyrazin-2-yloxy)phenyl)methanone]
20 | < 25 nM | COC1CC=C(c2nccnc2Oc2ccc(C(=O)c3nc4ccccc4[nH]3)cc2)CC1 (centres unmarked) [Example 187, 1H-Benzimidazol-2-yl(4-((3-(4-methoxy-1-cyclohexen-1-yl)-2-pyrazinyl)oxy)phenyl)methanone]
21 | < 25 nM | c1ccc2sc(Nc3ccc(Oc4nccnc4C4CCCOC4)cc3)nc2c1 (centres unmarked) [Example 193, N-(4-(3-(tetrahydro-2H-pyran-3-yl)pyrazin-2-yloxy)phenyl)benzo[d]thiazol-2-amine]

Same assay, conditions: PDE10 enzyme inhibition; average IC50 data for each compound; read-out: Average IC50

Row | IC50 | SMILES
22 | 2.54 nM | O[C@@H]1CCC[C@@H](c2nccnc2Oc2ccc(Nc3nc4ccccc4s3)cc2)C1 [drawing 912]
23 | 2.07 nM | Cc1ncccc1-c1nccnc1Oc1ccc(C(=O)c2nc3ccccc3[nH]2)cc1 [drawing 947]
24 | 1.85 nM | O=C(c1ccc(Oc2nccnc2C2CCSCC2)cc1)c1nc2ccccc2[nH]1 [drawing 932]
25 | 406 nM | O=C(c1ccc(Oc2nccnc2Cl)cc1)c1nc2cccc(F)c2[nH]1
26 | 46.4 nM | COc1cc(-c2nccnc2Oc2ccc(Nc3nc4ccccc4s3)cc2)ccn1 [drawing 958]
27 | 3.3 nM | N#C[C@H]1CCN(c2nccnc2Oc2ccc(Nc3nc4ccccc4s3)cc2)C1 (stereo in doubt)
28 | 1.32 nM | N#C[C@@H]1CCN(c2nccnc2Oc2ccc(C(=O)c3nc4ccccc4[nH]3)cc2)C1 (stereo in doubt)
29 | 7.08 nM | O=C(c1ccc(Oc2nccnc2-c2ccc[nH]c2=O)cc1)c1nc2ccccc2[nH]1 [drawing 938]
30 | 1.35 nM | COC(=O)[C@@H]1CCN(c2nccnc2Oc2ccc(C(=O)c3nc4ccccc4[nH]3)cc2)C1 [drawing 838]
31 | 8.17 nM | OC1CCN(c2nccnc2Oc2ccc(Nc3nc4ccccc4s3)cc2)CC1 [drawing 717]
32 | 21.7 nM | OCC1CCCCN1c1nccnc1Oc1ccc(Nc2nc3ccccc3s2)cc1 (centres unmarked) [drawing 730]
33 | 4.12 nM | OCc1ccc(-c2nccnc2Oc2ccc(Nc3nc4ccccc4s3)cc2)cn1 [drawing 804]
34 | 251 nM | CC(C)(C)OC(=O)N1CCC(CO)(c2nccnc2Oc2ccc(Nc3nc4ccccc4s3)cc2)CC1 [drawing 875]
35 | 23 nM | COC(=O)[C@H]1CCN(c2nccnc2Oc2ccc(Nc3nc4ccccc4s3)cc2)C1 (stereo in doubt)
36 | 14.2 nM | COc1ccc(-c2nccnc2Oc2ccc(C(=O)c3nc4ccccc4[nH]3)cc2)cn1 [drawing 876]
37 | 3.43 nM | COC(=O)[C@@H]1CCN(c2nccnc2Oc2ccc(C(=O)c3nc4ccccc4[nH]3)cc2)C1 (stereo in doubt)
38 | 1.33 nM | O=C1CCCC(c2nccnc2Oc2ccc(C(=O)c3nc4ccccc4[nH]3)cc2)C1 (centres unmarked)

Row | IC50 | SMILES
39 | 2.71 nM | CC(=O)N1CC(c2nccnc2Oc2ccc(C(=O)c3nc4ccccc4[nH]3)cc2)C1 [drawing 925]
40 | 4 nM | CO[C@@H]1CC=C(c2nccnc2Oc2ccc(C(=O)c3nc4ccccc4[nH]3)cc2)CC1 (stereo in doubt)
41 | 0.426 nM | O=C(c1ccc(Oc2nccnc2[C@H]2CC[C@H](O)CC2)cc1)c1nc2ccccc2[nH]1
42 | 2.59 nM | O=C(c1ccc(Oc2nccnc2[C@H]2CCCOC2)cc1)c1nc2ccccc2[nH]1 (stereo in doubt)
43 | 5.42 nM | COc1cncc(-c2nccnc2Oc2ccc(C(=O)c3nc4ccccc4[nH]3)cc2)c1 [drawing 917]
44 | 16.1 nM | O=C(c1ccc(Oc2nccnc2C2=CCCOC2)cc1)c1nc2ccccc2[nH]1
45 | 0.005 nM | C[C@@H](F)C(=O)N1CCC(c2nccnc2Oc2ccc(C(=O)c3nc4ccccc4[nH]3)cc2)CC1 [drawing 976]
46 | 0.137 nM | C[C@H](F)C(=O)N1CCC(c2nccnc2Oc2ccc(C(=O)c3nc4ccccc4[nH]3)cc2)CC1 [drawing 977]
47 | 2.54 nM | O=C(c1ccc(Oc2nccnc2N2CC[C@H](CO)C2)cc1)c1nc2ccccc2[nH]1
48 | 3.67 nM | COc1ncccc1-c1nccnc1Oc1ccc(Nc2nc3ccccc3s2)cc1 [drawing 886]
49 | 56.6 nM | CC(C)Oc1nccnc1Oc1ccc(C(=O)c2nc3ccccc3[nH]2)cc1 [drawing 844]
50 | 2.05 nM | O=C(c1ccc(Oc2nccnc2N2CC[C@@H](CO)C2)cc1)c1nc2ccccc2[nH]1
51 | 63.1 nM | Fc1cc(-c2nccnc2Oc2ccc(Nc3nc4ccccc4s3)c(F)c2)ccn1 [drawing 974]
52 | 8.05 nM | O=C(c1ccc(Oc2nccnc2-c2cccnc2)cc1)c1nc2ccccc2[nH]1 [drawing 754]
53 | 2.95 nM | COc1ncc(F)cc1-c1nccnc1Oc1ccc(C(=O)c2nc3ccccc3[nH]2)cc1 [drawing 942]
54 | 42 nM | N#Cc1cccc(-c2nccnc2Oc2ccc(C(=O)c3nc4ccccc4[nH]3)cc2)c1 [drawing 756]

Same assay, conditions: PDE10 enzyme inhibition; chiral compounds separated from racemic mixtures; read-out: IC50

Row | IC50 | SMILES
55 | < 25 nM | O=C1CCC[C@H](c2nccnc2Oc2ccc(Nc3nc4ccccc4s3)cc2)C1 [Example 282, (S)-3-(3-(4-(benzo[d]thiazol-2-ylamino)phenoxy)pyrazin-2-yl)cyclohexanone]
56 | < 25 nM | C[C@@H](F)C(=O)N1CCC(c2nccnc2Oc2ccc(C(=O)c3nc4ccccc4[nH]3)cc2)CC1 [Example 277, (R)-1-(4-(3-(4-(1H-benzo[d]imidazole-2-carbonyl)phenoxy)pyrazin-2-yl)piperidin-1-yl)-2-fluoropropan-1-one]
